Experimental data taken from paper PMC5342071, “A first generation inhibitor of human Greatwall kinase, enabled by structural and functional characterisation of a minimal kinase domain construct” (Oncotarget, 2016).

T1: hGWL^FL (Homo sapiens, UniProt Q96GX5)
T1 construct: N-terminally FLAG-tagged full-length human GWL; made in house; host or cells: HEK293T cells, transfected and nocodazole-arrested; protein captured on anti-Flag M2 beads
T1 sequence (Q96GX5 1-879): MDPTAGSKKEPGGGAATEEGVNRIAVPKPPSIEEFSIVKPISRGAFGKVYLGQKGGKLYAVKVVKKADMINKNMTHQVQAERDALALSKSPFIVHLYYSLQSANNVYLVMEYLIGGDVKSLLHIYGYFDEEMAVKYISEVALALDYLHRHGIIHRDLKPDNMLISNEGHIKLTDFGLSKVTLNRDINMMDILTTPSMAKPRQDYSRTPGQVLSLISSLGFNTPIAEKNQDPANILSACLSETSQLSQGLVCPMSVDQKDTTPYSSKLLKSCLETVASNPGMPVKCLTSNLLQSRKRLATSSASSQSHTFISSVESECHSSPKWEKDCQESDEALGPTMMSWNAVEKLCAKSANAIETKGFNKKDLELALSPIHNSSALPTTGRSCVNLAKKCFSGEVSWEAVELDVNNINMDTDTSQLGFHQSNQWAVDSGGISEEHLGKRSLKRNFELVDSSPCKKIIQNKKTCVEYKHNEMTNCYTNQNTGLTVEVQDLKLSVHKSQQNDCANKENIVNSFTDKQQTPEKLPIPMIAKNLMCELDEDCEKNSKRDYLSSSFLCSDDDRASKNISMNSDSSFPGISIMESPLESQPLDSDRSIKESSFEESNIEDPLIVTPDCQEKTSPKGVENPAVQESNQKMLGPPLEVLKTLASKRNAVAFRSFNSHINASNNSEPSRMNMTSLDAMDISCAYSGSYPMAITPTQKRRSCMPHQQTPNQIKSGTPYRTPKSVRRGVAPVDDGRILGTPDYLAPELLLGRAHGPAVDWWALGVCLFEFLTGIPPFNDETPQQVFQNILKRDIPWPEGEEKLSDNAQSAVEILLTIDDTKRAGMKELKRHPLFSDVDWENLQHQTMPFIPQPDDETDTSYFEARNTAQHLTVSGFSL


Key:
Assay type in all cases: biochemical
hGWL^FL = biological target: T1, hGWL^FL; assay: Immunoprecipitation kinase assay with Flag-tagged hGWL^FL (p-ENSA western); conditions: for inhibition of hGWL^FL (result in words): immunoprecipitation kinase assay; for IC50: immunoprecipitated Flag-tagged hGWL^FL, read-out: IC50 GWL^FL
Protocol: 500 mM NaCl, and 0.5 mM TCEP) diluted to desired concentration or immunoprecipitated hGWL on beads with ultra-pure ATP [Promega, 25 µM] and His-tagged substrate  α-endosulfine (ENSA, 2 µM) in kinase assay buffer (50 mM Tris-HCl pH 7.5, 0.5 mM EGTA, 150 mM NaCl, 0.1% v/v NP-40 and 15 mM MgCl2). The […]
(dithiothreitol), 50% v/v Glycerol, 10% v/v SDS (sodium dodecyl sulphate), and 0.25M Tris-HCl pH 6.8) or Kinase-Glo Max reagent [Promega]. Recombinant His-tagged ENSA was purified using Ni-NTA agarose [QIAGEN] from BL21 E. coli following the manufacturer’s recommended protocol. […]
(§1) All kinase assays were repeated thrice per assay condition and each point on the concentration-dependent response curves represents the mean ± […]
Immunoprecipitation Kinase Assay
HEK293T cells were transfected with 10 µg of plasmid (Flag-tagged hGWLFL or GFP; pcDNA3-EGFP, Addgene, Cambridge MA, USA) using CaCl2. […]
incubated for a further 16–18 h. Cells were collected and washed in PBS-A followed by lysis on ice for 20 min in 1mL IP buffer (50 mM Tris-HCl pH 7.5, 150 mM NaCl, 10% v/v glycerol, 0.5% v/v NP-40, 1 mM EDTA supplemented with protease and phosphatase inhibitors (Complete and PhosStop; Roche Diagnostics)). Samples were then sonicated and clarified by centrifugation at 13,000 rpm for 30 min at 4°C. To capture Flag-tagged […]
hGWLFL, 100 µl of lysate was diluted 5-fold with IP buffer and combined with 3 µl anti-Flag M2 magnetic Dynabeads [Sigma-Aldrich] overnight at 4 °C. After sequential washes with IP buffer, 1:1 mix of IP and kinase assay buffers and a final wash in kinase assay buffer, the beads were then used in the kinase assay. The reaction was stopped by adding SDS loading buffer and analysed by western blot: p-ENSA and GWL levels were detected using the anti-phospho(Ser67)-ENSA and anti-MASTL(GWL, Prestige) antibodies. Activity was measured as the p-ENSA/GWL ratio and % kinase activity was normalised to the DMSO control. All kinases assays were repeated thrice per assay condition and each point on the concentration-dependent response curves represents the mean ± 1 S.D. […]

hGWL-KinDom [1] = biological target: T2, hGWL-KinDom (Homo sapiens, UniProt Q96GX5); assay: Inhibitor screen of pooled library with hGWL-KinDom (Kinase-Glo Max); conditions: for inhibition at 10 µM: 10 μM screening concentration, ATP concentration = 45 μM; for Rank in inhibitor screen: rank by potency in the screen
T2 construct: that encoded amino acids (aa) 1-194 + ‘RTFC’ + 740-879 of hGWL; GST (rhinovirus 3C-protease cleavable) (N, cleaved yes); made in house; host or cells: E. coli Rosetta2(DE3)
Protocol: Two small-molecule compound libraries, enriched with pharmacophores known to interact with the ATP-binding site of protein kinases, were screened as a pooled library in a Kinase-GloMax luminescence-kinase assay. page 4: […] Dynabeads [Sigma-Aldrich] overnight at 4 °C. After sequential washes with IP buffer, 1:1 mix of IP and kinase assay buffers and a final wash in kinase assay buffer, the beads were then used in the kinase assay. The reaction was stopped by adding SDS loading buffer and analysed by western blot: p-ENSA and GWL levels were detected using the anti-phospho([…] and […], Prestige) antibodies. Activity was measured as the […] ratio and % kinase activity was normalised to the DMSO control. All kinases assays were repeated thrice per assay condition and each point on the concentration-dependent response curves represents the mean ± 1 S.D. PKA, ROCK1 and CDK2 kinase assays PKA and ROCK1 assays (Promega) were carried out according to the manufacturer's protocols and CDK2 assays were carried out with Histone H1 as substrate (1 µg per 20 µl reaction) according to our Kinase-Glo Max assay. CDK2 was expressed and purified from E. coli as previously described (10). Inhibitor Screens with hGWL-KinDom Two small-molecule compound libraries, enriched with pharmacophores known to interact with the ATP- binding site of protein kinases, were kindly provided by GlaxoSmithKline and Roche. We used this pooled library (582 compounds, 10 µM screening concentrations) in a Kinase-Glo Max luminescence kinase assay (11, 12) as part of a two-point screen against hGWL-KinDom kinase activity, using ATP at fixed concentrations of […] With STU as positive control at a […] 4A,B). […] rate = 5.8%; Supplementary Figure 4A). Molecular Docking - AutoDock AT13148 and GKI-1/2 were docked into the ATP-binding site of the hGWL-KinDom crystal structure (where the disordered C-helix was homology-modelled) using AutoDock 4.2.6. PDB format files for the ligand and kinase domain were pre-processed using AutoDock Tools 1.5.6 as described in Mohamed, et al. (13). (Figure 4 and Supplementary Figure 6A,B). Immunofluorescence and Time-lapse video microscopy 2.5 X 105 HeLa cells were plated onto glass coverslips in a 6-well plate, or 4-well µ-slides [Ibidi GmbH] were seeded with 5 X 104 cells and then transfected with Qiagen AllStars negative control or Hs_MASTL_6 siRNAs (14) using Lipofectamine RNAiMax [ThermoFisher Scientific]. Media was exchanged with fresh media the next day. 48 hours after siRNA treatment, only cells to be used for immunofluorescence (IF) were treated with nocodazole (200 ng/mL) and DMSO or GKI-1 at the indicated concentration. For IF, cells were fixed, stained with primary mouse anti-GWL and rabbit anti-p-ENSA antibodies, secondary Alexa Fluor 647-conjugated anti- rabbit and Alexa Fluor 488-conjugated anti-mouse antibodies, DAPI and mounted onto glass microscope slides using Diamond Antifade Mountant [Molecular Probes, ThermoFisher Scientific]. Quantitation of IF images was performed using the […]-Content Screening Station [Olympus Life Science] which acquired 220, 40x images per cover slip. Data were normalised against the AllStars negative control siRNA treated cells and values obtained from three biological replicates were reported as the mean ± 1 S.D. To assist with selecting mitotic cells, ScanR imaging software was utilised to gate for mitotic cells using the circularity factor and total DAPI parameters. To produce time-lapse videos, after 48 hours and cell treatment with DMSO or compound (cells were treated with GKI-1 for 4-h before image acquisition) cells plated in 4-well µ-slides were imaged every 5 minutes for 8.5 hours on an Olympus IX73 microscope, using a 40 x 0.95NA air objective, and recorded on an Orca-Flash 4.0 CMOS camera [Hamatsu]. The computer program Fiji (http://www.fiji.sc/Fiji) was used to generate videos from image sequence TIF files. Data were normalised against the AllStars negative control siRNA treated cells and […]

hGWL-KinDom [2] = biological target: T2, hGWL-KinDom; assay: Kinase-Glo Max luminescence kinase assay with hGWL-KinDom; conditions: for Km / kcat: substrate of hGWL-KinDom, Kinase-Glo Max
Protocol: Non-radioactive kinase assays were set-up by combining hGWL-KinDom (305 µM in 20 mM HEPES pH 7.5, FL 500 mM NaCl, and 0.5 mM TCEP) diluted to desired concentration or immunoprecipitated hGWL on beads with ultra-pure ATP [Promega, 25 µM] and His-tagged substrate  α-endosulfine (ENSA, 2 µM) in kinase assay buffer (50 mM Tris-HCl pH 7.5, 0.5 mM EGTA, 150 mM NaCl, 0.1% v/v NP-40 and 15 mM MgCl2). The reaction was allowed to proceed for 30 min at 37 °C or another indicated time-point after which it was stopped with either SDS loading buffer (5X buffer, including 0.25 % w/v Bromophenol blue, 0.5 M DTT (dithiothreitol), 50% v/v Glycerol, 10% v/v SDS (sodium dodecyl sulphate), and 0.25M Tris-HCl pH 6.8) or Kinase-Glo Max reagent [Promega]. Recombinant His-tagged ENSA was purified using Ni-NTA agarose [QIAGEN] from BL21 E. coli following the manufacturer’s recommended protocol. […]
as §1
After stopping the above non-radioactive kinase assay with 1 volume of Kinase-Glo Max reagent the mixture was allowed to incubate for a further 15 min. To detect consumption of ATP, samples were transferred to white, flat-bottom 96-well plates [Thermo Fisher Scientific, Loughborough, UK] and luminescence was detected using a POLARstar Omega micro-plate reader [BMG Labtech GmbH, Ortenberg, Germany]. As this assay measures ATP, activity or ATP turnover was measured as the -ΔRLU. […]

PKA = biological target: T3, PKA (Homo sapiens, UniProt P17612); assay: PKA kinase assay (Promega)
T3 construct: purchased Promega
Protocol: (§2) hGWLFL, 100 µl of lysate was diluted 5-fold with IP buffer and combined with 3 µl anti-Flag M2 magnetic Dynabeads [Sigma-Aldrich] overnight at 4 °C. After sequential washes with IP buffer, 1:1 mix of IP and kinase assay buffers and a final wash in kinase assay buffer, the beads were then used in the kinase assay. The reaction was stopped by adding SDS loading buffer and analysed by western blot: p-ENSA and GWL levels were detected using the anti-phospho(Ser67)-ENSA and anti-MASTL(GWL, Prestige) antibodies. Activity was measured as the p-ENSA/GWL ratio and % kinase activity was normalised to the DMSO control. All kinases assays were repeated thrice per assay condition and each point on the concentration-dependent response curves represents the mean ± 1 S.D.
(§3) PKA, ROCK1 and CDK2 kinase assays […]
(§4) Data were normalised against the AllStars negative control siRNA treated cells and values obtained from 3 – 5 biological replicates were reported as the mean ± 1 S.D.

ROCK1 = biological target: T4, ROCK1 (Homo sapiens, UniProt Q13464); assay: ROCK1 kinase assay (Promega)
T4 construct: purchased Promega
Protocol: as §2, §3, §4

T2 sequence (Q96GX5 with tags, fused parts or gaps limits assumed): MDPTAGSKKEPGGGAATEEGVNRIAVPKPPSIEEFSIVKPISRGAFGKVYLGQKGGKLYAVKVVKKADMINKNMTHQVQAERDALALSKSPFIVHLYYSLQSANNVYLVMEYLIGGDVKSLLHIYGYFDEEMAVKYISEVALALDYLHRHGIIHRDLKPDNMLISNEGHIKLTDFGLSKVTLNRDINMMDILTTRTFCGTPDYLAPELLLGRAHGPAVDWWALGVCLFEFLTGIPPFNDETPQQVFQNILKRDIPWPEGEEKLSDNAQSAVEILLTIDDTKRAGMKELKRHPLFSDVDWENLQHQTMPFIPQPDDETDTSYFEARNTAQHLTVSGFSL
T4 sequence (Q13464 whole entry): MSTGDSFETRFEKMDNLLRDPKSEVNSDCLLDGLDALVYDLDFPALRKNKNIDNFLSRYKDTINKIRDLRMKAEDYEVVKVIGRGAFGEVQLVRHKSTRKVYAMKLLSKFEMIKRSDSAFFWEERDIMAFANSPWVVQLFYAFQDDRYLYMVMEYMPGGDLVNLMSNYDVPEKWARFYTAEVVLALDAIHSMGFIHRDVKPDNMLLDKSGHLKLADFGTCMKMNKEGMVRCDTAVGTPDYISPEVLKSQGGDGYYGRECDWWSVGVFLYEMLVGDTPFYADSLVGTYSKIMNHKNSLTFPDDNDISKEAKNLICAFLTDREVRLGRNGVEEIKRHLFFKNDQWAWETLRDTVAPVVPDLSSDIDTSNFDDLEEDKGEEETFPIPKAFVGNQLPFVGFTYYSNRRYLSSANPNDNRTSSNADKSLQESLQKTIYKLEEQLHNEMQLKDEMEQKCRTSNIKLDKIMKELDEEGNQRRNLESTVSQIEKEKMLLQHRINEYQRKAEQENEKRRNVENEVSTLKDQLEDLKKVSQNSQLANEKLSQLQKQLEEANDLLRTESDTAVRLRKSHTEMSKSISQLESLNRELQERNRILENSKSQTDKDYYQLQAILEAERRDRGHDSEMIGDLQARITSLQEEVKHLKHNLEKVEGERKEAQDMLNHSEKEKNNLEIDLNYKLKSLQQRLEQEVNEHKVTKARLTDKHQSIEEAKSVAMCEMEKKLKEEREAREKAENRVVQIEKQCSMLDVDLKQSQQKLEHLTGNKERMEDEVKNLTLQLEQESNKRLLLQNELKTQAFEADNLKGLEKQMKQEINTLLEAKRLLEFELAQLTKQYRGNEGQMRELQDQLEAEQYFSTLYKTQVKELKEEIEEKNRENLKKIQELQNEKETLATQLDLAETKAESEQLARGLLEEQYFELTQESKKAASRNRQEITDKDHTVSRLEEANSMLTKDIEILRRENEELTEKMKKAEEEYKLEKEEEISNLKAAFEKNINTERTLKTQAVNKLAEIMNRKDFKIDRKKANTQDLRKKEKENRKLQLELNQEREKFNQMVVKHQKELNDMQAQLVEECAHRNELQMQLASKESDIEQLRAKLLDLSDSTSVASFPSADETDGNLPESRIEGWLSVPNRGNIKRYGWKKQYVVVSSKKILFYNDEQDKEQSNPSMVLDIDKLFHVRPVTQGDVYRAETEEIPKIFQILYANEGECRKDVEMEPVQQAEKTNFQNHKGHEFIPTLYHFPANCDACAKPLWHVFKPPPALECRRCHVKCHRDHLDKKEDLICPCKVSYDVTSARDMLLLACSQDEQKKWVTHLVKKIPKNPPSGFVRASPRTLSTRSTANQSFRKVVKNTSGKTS

| Molecule | inhibition of hGWL^FL (result in words) (hGWL^FL) | inhibition at 10 µM (hGWL-KinDom [1]) | Rank in inhibitor screen (hGWL-KinDom [1]) | IC50 (hGWL^FL) | Km (hGWL-KinDom [2]) | kcat (hGWL-KinDom [2]) | further results |
| --- | --- | --- | --- | --- | --- | --- | --- |
| Nc1ncnc2c1ncn2[C@@H]1O[C@H](COP(=O)(O)OP(=O)(O)OP(=O)(O)O)[C@@H](O)[C@H]1O [ATP] | – | – | – | – | 17.2 ± 2.4 µM | 10.4 ± 0.48 s⁻¹ | – |
| NC[C@@](O)(c1ccc(Cl)cc1)c1ccc(-c2cn[nH]c2)cc1 [AT13148, reference compound] | – | – | – | 5900 nM | – | – | IC50 (hGWL-KinDom [2]; Kinase-Glo Max assay, read-out: IC50 GWL-KinDom): 125 ± 1.7 nM; IC50 (PKA; refers to Table 2): ~11 nM; IC50 (PKA; ± S.D.): 6.13 ± 2 nM; inhibitory ratio (IC50 GWL^FL/IC50 GWL-KinDom) (hGWL^FL; for GKI-1: EC50 hGWL^FL vs IC50 hGWL-KinDom): 45; AT13148 IC50/STU IC50 (hGWL^FL; hGWL^FL inhibition): ~ 2; IC50 (ROCK1; refers to Table 2): ~6 nM; IC50 (ROCK1; ± S.D.): 11.4 ± 4 nM |
| ENSA: His-tagged recombinant α-endosulfine, GWL substrate (protein, UniProt O43768 2-121, looked up, His tag, His-tagged recombinant α-endosulfine, GWL substrate) Alpha-endosulfine: SQKQEEENPAEETGEEKQDTQEKEGILPERAEEAKLKAKYPSLGQKPGGSDFLMKRLQKGQKYFDSGDYNMAKAKMKNKQLPSAGPDKNLVTGDHIPTPQDLPQRKSSLVTSKLAGGQVE | – | – | – | – | 1.6 ± 0.3 µM | 0.2 ± 0.01 s⁻¹ | – |

Continued, in another order:

| inhibition of hGWL^FL (result in words) (hGWL^FL) | inhibition at 10 µM (hGWL-KinDom [1]) | Rank in inhibitor screen (hGWL-KinDom [1]) | IC50 (hGWL^FL) | Molecule | Km (hGWL-KinDom [2]) | kcat (hGWL-KinDom [2]) | further results |
| --- | --- | --- | --- | --- | --- | --- | --- |
| did not demonstrably inhibit | – | – | – | Clc1ccc(Nc2ccc(-c3cn[nH]c3)cc2)cc1 [GKI-2, N-(4-chorophenyl)-4-(1H-pyrazol-4-yl)aniline] | – | – | – |
| did not demonstrably inhibit | 37% | 5 | > 100000 nM | CNC(C#Cc1c(F)ccc2c1C(=Cc1[nH]ccc1OC)C(=O)N2)CO (stereo not drawn) [GRI-2] | – | – | – |
| did not demonstrably inhibit | 67.6% | 1 | > 100000 nM | COc1cc[nH]c1/C=C1\C(=O)Nc2ccc(F)c(C#CC3(O)CCNCC3)c21 [GRI-1] | – | – | – |
